Tested on: yeast genes (level of expressed mRNA)
Assay: DNA chip analysis of expressed mRNA of yeast genes after 2 h culture with a toxic chemical substance
Type: cell-based, Saccharomyces cerevisiae S288C
Protocol: Yeast (Saccharomyces cerevtisiae S288C (α SUC2mal mel gap2 CUP1)) were cultured at 25° C. on YPD medium (yeast extract 1%, polypepton 2%, glucose 2%). One of toxic chemical substances was added to the cell at logarithmic growth phase, and the cell was further cultured for two hours. Cell was cultured without any chemical substance in the same condition, and was used as control. Concentrations of the chemical substances were defined to inhibit the growth of the yeast but not lead to death.
After the completion of cultivation, the culture was centrifuged to collect the cells. To the cells, sodium acetate buffer (50 mM sodium acetate, 10 mM EDTA, 1% SDS) was added, and the mixture was shaken at 65° C. for five minutes, followed by returning to room temperature, and obtaining the supernatant, which procedure was repeated two times. To the supernatant, ½ amount of a solution of phenol/chloroform was added, and the mixture was centrifuged to give a supernatant, which was added with an equal amount of chloroform, and the mixture was centrifuged to give a supernatant. To the supernatant, an equal amount of isopropanol containing 0.3 M sodium acetate was added, and the mixture was allowed to stand at room temperature for 30 minutes, after which the mixture was centrifuged to give a sediment of the whole RNAs. Seventy % ethanol was added to the sediment, and the mixture was again centrifuged to give a sediment, which was then dried and dissolved in water. mRNA was isolated from the whole RNAs as followings. In view of the fact that a poly A chain is attached to the 3′ terminus of mRNA, a polynucleotide having a poly T structure which was immobilized on the surface of latex beads was used to trap the mRNA, and then the mRNA was washed and eluted with spine column (Oligotex-dT30<Super>mRNA Purification Kit, Takara). Reverse transcription of the mRNA was conducted with a reverse transcriptase (Super Script II Reverse Transcriptase; catalogue No. 18064-014, GibcoBRL) using fluorescence-labeled nucleotides to give cDNAs that were introduced with Cy3-dUTP or Cy5-dUTP during the reverse transcription.
The labeled cDNAs were dissolved in TE buffer (10 mM Tris-HCl/1 mM EDTA, pH8.0), and the solution was dropped on the DNA chip containing the whole genes of yeast (DNA Chip Research Inc. Japan) so that the cDNAs were hybridized on the DNA chip at 65° C. for over 12 hours. The fluoresces intensity of the DNA chip was read with a scanner, and the ratio relative to the fluorescence intensity resulting from the absence of chemical substance was estimated as the following, which is shown in Tables 1 to 9: [formula]
In the Tables, “Intensity” indicated in the rightmost column is a value of the level of expressed mRNA of each gene in control cells as divided by the average level of the expressions of the whole genes.

For CdCl2 [(2)], the “The level of expressed mRNA in the presence of chemical substance/” value (yeast gene YNL074C, ratio to control without chemical substance, 2 h culture) was 1.3, the “The level of expressed mRNA in the presence of chemical substance/” value (yeast gene YNL092W, ratio to control without chemical substance, 2 h culture) was 1.4 and the “The level of expressed mRNA in the presence of chemical substance/The level of expressed mRNA in the absence of chemical substance” value (yeast gene YNL093W) was 6.4. For the same substance, the “The level of expressed mRNA in the presence of chemical substance/” value (yeast gene YNL115C, ratio to control without chemical substance, 2 h culture) was 1.8, the “The level of expressed mRNA in the presence of chemical substance/” value (yeast gene YNL156C, ratio to control without chemical substance, 2 h culture) was 1.2 and the “The level of expressed mRNA in the presence of chemical substance/” value (yeast gene YNL234W, ratio to control without chemical substance, 2 h culture) was 1.1. For the same substance, the “The level of expressed mRNA in the presence of chemical substance/” value (yeast gene YNL281W, ratio to control without chemical) was 1.3, the “The level of expressed mRNA in the presence of chemical substance/” value (yeast gene YNL305C, ratio to control without chemical) was 2.2 and the “The level of expressed mRNA in the presence of chemical substance/The level of expressed mRNA in the absence of chemical substance” value (yeast gene YNL333W) was 1.4. The “The level of expressed mRNA in the presence of chemical substance/The level of expressed mRNA in the absence of chemical substance” value (yeast gene YNR010W) was 1.2, the “The level of expressed mRNA in the presence of chemical substance/” value (yeast gene YNR068C, ratio to control without chemical) was 1.5 and the “The level of expressed mRNA in the presence of chemical substance/The level of expressed mRNA in the absence of chemical substance” value (yeast gene YNR069C) was 1.3. The “The level of expressed mRNA in the presence of chemical substance/in the absence of chemical substance” value (yeast gene YNR072W) was 1.5, the “The level of expressed mRNA in the presence of chemical substance/The level of expressed mRNA in the absence of chemical substance” value (yeast gene YOL013C) was 1.0 and the “The level of expressed mRNA in the presence of chemical substance/” value (yeast gene YOL032W, ratio to control without chemical) was 0.8. The “The level of expressed mRNA in the presence of chemical substance/” value (yeast gene YOL036W, ratio to control without chemical) was 0.9, the “The level of expressed mRNA in the presence of chemical substance/” value (yeast gene YOL047C, ratio to control without chemical) was 1.1 and the “The level of expressed mRNA in the presence of chemical substance/” value (yeast gene YOL071W, ratio to control without chemical) was 2.0. For the same substance, the “The level of expressed mRNA in the presence of chemical substance/” value (yeast gene YOL082W, ratio to control without chemical) was 1.6, the “The level of expressed mRNA in the presence of chemical substance/” value (yeast gene YOL083W, ratio to control without chemical) was 2.3 and the “The level of expressed mRNA in the presence of chemical substance/in the absence of chemical substance” value (yeast gene YOL096C) was 1.0. The “The level of expressed mRNA in the presence of chemical substance/” value (yeast gene YOL117W, ratio to control without chemical) was 1.1, the “The level of expressed mRNA in the presence of chemical substance/” value (yeast gene YOL131W, ratio to control without chemical) was 1.5 and the “The level of expressed mRNA in the presence of chemical substance/” value (yeast gene YOL150C, ratio to control without chemical substance, 2 h culture) was 3.7. For the same substance, the “The level of expressed mRNA in the presence of chemical substance/” value (yeast gene YOL162W, ratio to control without chemical) was 6.9, the “The level of expressed mRNA in the presence of chemical substance/The level of expressed mRNA in the absence of chemical substance” value (yeast gene YOL164W) was 4.4 and the “The level of expressed mRNA in the presence of chemical substance/” value (yeast gene YOR019W, ratio to control without chemical) was 1.2. The “The level of expressed mRNA in the presence of chemical substance/The level of expressed mRNA in the absence of chemical substance” value (yeast gene YOR036W) was 0.9, the “The level of expressed mRNA in the presence of chemical substance/The level of expressed mRNA in the absence of chemical substance” value (yeast gene YOR117W) was 1.3 and the “The level of expressed mRNA in the presence of chemical substance/The level of expressed mRNA in the absence of chemical substance” value (yeast gene YOR124C) was 1.1. For the same substance, the “The level of expressed mRNA in the presence of chemical substance/The level of expressed mRNA in the absence of chemical substance” value (yeast gene YOR132W) was 1.6, the “The level of expressed mRNA in the presence of chemical substance/The level of expressed mRNA in the absence of chemical substance” value (yeast gene YOR157C) was 1.3 and the “The level of expressed mRNA in the presence of chemical substance/in the absence of chemical substance” value (yeast gene YOR180C) was 1.1. The “The level of expressed mRNA in the presence of chemical substance/The level of expressed mRNA in the absence of chemical substance” value (yeast gene YOR181W) was 0.9, the “The level of expressed mRNA in the presence of chemical substance/The level of expressed mRNA in the absence of chemical substance” value (yeast gene YOR185C) was 1.3 and the “The level of expressed mRNA in the presence of chemical substance/” value (yeast gene YOR197W, ratio to control without chemical) was 1.0. The “The level of expressed mRNA in the presence of chemical substance/The level of expressed mRNA in the absence of chemical substance” value (yeast gene YOR198C) was 0.7, the “The level of expressed mRNA in the presence of chemical substance/The level of expressed mRNA in the absence of chemical substance” value (yeast gene YOR259C) was 1.1 and the “The level of expressed mRNA in the presence of chemical substance/The level of expressed mRNA in the absence of chemical substance” value (yeast gene YOR261C) was 1.4. For the same substance, the “The level of expressed mRNA in the presence of chemical substance/The level of expressed mRNA in the absence of chemical substance” value (yeast gene YOR288C) was 1.3, the “The level of expressed mRNA in the presence of chemical substance/The level of expressed mRNA in the absence of chemical substance” value (yeast gene YOR355W) was 0.6 and the “The level of expressed mRNA in the presence of chemical substance/in the absence of chemical substance” value (yeast gene YOR363C) was 2.0. The “The level of expressed mRNA in the presence of chemical substance/The level of expressed mRNA in the absence of chemical substance” value (yeast gene YOR383C) was 4.3, the “The level of expressed mRNA in the presence of chemical substance/” value (yeast gene YPL087W, ratio to control without chemical) was 5.1 and the “The level of expressed mRNA in the presence of chemical substance/The level of expressed mRNA in the absence of chemical substance” value (yeast gene YPL089C) was 1.0. For the same substance, the “The level of expressed mRNA in the presence of chemical substance/The level of expressed mRNA in the absence of chemical substance” value (yeast gene YPL109C) was 2.5, the “The level of expressed mRNA in the presence of chemical substance/The level of expressed mRNA in the absence of chemical substance” value (yeast gene YPL149W) was 1.5 and the “The level of expressed mRNA in the presence of chemical substance/The level of expressed mRNA in the absence of chemical substance” value (yeast gene YPL154C) was 3.3. For the same substance, the “The level of expressed mRNA in the presence of chemical substance/” value (yeast gene YPL196W, ratio to control without chemical) was 1.6, the “The level of expressed mRNA in the presence of chemical substance/” value (yeast gene YPL206C, ratio to control without chemical) was 2.9 and the “The level of expressed mRNA in the presence of chemical substance/” value (yeast gene YPL222W, ratio to control without chemical) was 3.5. The “The level of expressed mRNA in the presence of chemical substance/” value (yeast gene YPR023C, ratio to control without chemical) was 1.4, the “The level of expressed mRNA in the presence of chemical substance/The level of expressed mRNA in the absence of chemical substance” value (yeast gene YPR103W) was 1.1 and the “The level of expressed mRNA in the presence of chemical substance/The level of expressed mRNA in the absence of chemical substance” value (yeast gene YPR108W) was 1.0. For the same substance, the “The level of expressed mRNA in the presence of chemical substance/” value (yeast gene YPR151C, ratio to control without chemical) was 2.0 and the “The level of expressed mRNA in the presence of chemical substance/in the absence of chemical substance” value (yeast gene YPR184W) was 1.4.

Source: patent publication US20050112573A1, “Method of detecting toxic substance” (priority 2001, published 2005)
